This note sets out measurements from patent publication US5410024A, “Human cancer inhibitory pentapeptide amides” (Arizona Board of Regents acting on behalf of Arizona State …, priority 1993, dated 1995).

Assay type in all cases: cell-based
The test system of one assay is human tumor cell lines. Description: Inhibition of human tumor cell lines (general statements). The following applies: for GI50: for at least six cell lines. An excerpt:
Current research in the control of cancer in the United States is coordinated by the National Cancer Institute (NCI). To determine whether a substance has anti-cancer properties, the NCI has established a systematic protocol. This protocol, which involves the testing of a substance against a standard cell line panel containing 60 human tumor cell lines, has been verified and is accepted in scientific circles. The protocol, and the established statistical means for analyzing the results obtained by the standardized testing are fully described in the literature. See: Boyd, Dr. Michael R., Principles & Practice of Oncology, PPO Updates, Volume 3, Number 10, October 1989, for an in depth description of the testing protocol; and Paull, K. D., "Display and Analysis of Patterns of Differential Activity of Drugs Against Human Tumor Cell Lines; Development of Mean Graph and COMPARE Algorithm", Journal of the National Cancer Institute Reports, Vol. 81, No. 14, Page 1088, Jul. 14, 1989 for a description of the methods of statistical analysis. Both of these references are incorporated herein by this reference thereto.

Another assay has as its system OVCAR-3. Put plainly: NCI human tumor cell line screen, Ovarian OVCAR-3. The conditions noted are these: for GI-50 / TGI / LC-50: Ovarian OVCAR-3. An excerpt:
(§1) Current research in the control of cancer in the United States is coordinated by the National Cancer Institute (NCI). To determine whether a substance has anti-cancer properties, the NCI has established a systematic protocol. […] The protocol, and the established statistical means for analyzing the results obtained by the standardized testing are fully described in the literature. […] Both of these references are incorporated herein by this reference thereto.

A further assay concerns SF-295. Put plainly: NCI human tumor cell line screen, CNS SF-295. The following applies: for GI-50 / TGI / LC-50: CNS SF-295.
Description: as §1

In the next assay the test system is A498. Description: NCI human tumor cell line screen, Renal A498. The conditions noted are these: for TGI / GI-50 / LC-50: Renal A498.
Description: as §1

For a further assay, the system named is NCI-H460. Put plainly: NCI human tumor cell line screen, Lung-NSC NCI-H460. The conditions noted are these: for GI-50 / TGI / LC-50: Lung-NSC NCI-H460.
Description: as §1

Another assay concerns KM20L2. Put plainly: NCI human tumor cell line screen, Colon KM20L2. The conditions noted are these: for TGI / LC-50 / GI-50: Colon KM20L2; for GI50, minipanel cell line E: minipanel comparison.
Description: as §1

The subject of a further assay is SK-MEL-5. Put plainly: NCI human tumor cell line screen, Melanoma SK-MEL-5. The conditions noted are these: for GI-50 / TGI / LC-50: Melanoma SK-MEL-5.
Description: as §1

A value given as a limit tells only on which side of the number the result lay.

Usually TGI stands for the concentration giving total growth inhibition.

For “(R)-Doe-isoDolastatin 10 [reference compound]”, the “human cancer cell line activity as compared to Dolastatin 10” value with human tumor cell lines is given as “did not show any significant difference”.
As for “L-Dolavalyl-L-Valyl-N-Methyl-(S,S,R)-Dolaisoleucyl-(S,R,R)-Dolaproyl-L-Phenylalanineamide-N-(2-benzothiazole) [Compound 9e]”, the GI-50 in the assay with OVCAR-3 was found to be 0.000000033 µg/mL; with SF-295, 0.00000011 µg/mL; in the assay with NCI-H460, 0.000000039 µg/mL; in the assay with SK-MEL-5, 0.000000030 µg/mL. Moreover, the TGI with OVCAR-3 was 0.00019 ng/mL; in the assay on SF-295, 0.00096 ng/mL; in the assay on A498, greater than 0.001 ng/mL; with NCI-H460 it was 0.00044 ng/mL; in the assay with KM20L2, 0.0007 ng/mL; in the assay on SK-MEL-5, greater than 0.001 ng/mL. In the assay on A498 (minipanel comparison, column C (key not visible; values match A498)), the “GI50, minipanel cell line C” value turned out to be 0.00023 ng/mL. In addition, in the assay with KM20L2, the “GI50, minipanel cell line E” value came to 0.00026 ng/mL. Moreover, the GI50 entry with human tumor cell lines was “less than 10^-7 μg/ml”.
Turning to “L-Dolavalyl-L-Valyl-N-Methyl-(S,S,R)-Dolaisoleucyl-(S,R,R)-Dolaproyl-L-Phenylalanineamide-N-(3-quinoline) [Compound 9g]”, the LC-50 in the assay with OVCAR-3, in the assay with SF-295, in the assay on A498, in the assay on NCI-H460, with KM20L2 and with SK-MEL-5 was greater than 0.000001 µg/mL in each case. The TGI is 7.9e-05 ng/mL in the assay on OVCAR-3; 0.00061 ng/mL in the assay with SF-295; greater than 0.001 ng/mL in the assay on A498; 0.00012 ng/mL with NCI-H460; 0.00023 ng/mL in the assay with KM20L2; greater than 0.001 ng/mL in the assay with SK-MEL-5. For the same substance, the “GI50, minipanel cell line A” value in the assay with OVCAR-3 (minipanel comparison, column A (key not visible; values match OVCAR-3)) turned out to be 4.6e-07 ng/mL. Moreover, the “GI50, minipanel cell line B” value in the assay on SF-295 (minipanel comparison, column B (key not visible; values match SF-295)) is 4e-05 ng/mL. This substance also showed a GI-50 with A498 of 0.000000100 µg/mL. The “GI50, minipanel cell line D” value in the assay with NCI-H460 (minipanel comparison, column D (key not visible; values match NCI-H460)) was 1.3e-05 ng/mL. For the same substance, the “GI50, minipanel cell line E” value in the assay on KM20L2 is 3.9e-05 ng/mL. Also, the “GI50, minipanel cell line F” value in the assay on SK-MEL-5 (minipanel comparison, column F (key not visible; values match SK-MEL-5)) is 3e-06 ng/mL. Also, the GI50 entry in the assay on human tumor cell lines is reported as “less than 10^-7 μg/ml”.
Regarding “L-Dolavalyl-L-Valyl-N-Methyl-(S,S,R)-Dolaisoleucyl-(S,R,R)-Dolaproyl-L-Phenylalanineamide-N-[2-(1,3,4-thiadiazole)] [Compound 9d]”, the GI-50 with OVCAR-3 was 0.0000031 µg/mL; with SF-295 it was 0.000024 µg/mL; with A498, 0.000039 µg/mL; in the assay with NCI-H460, 0.0000036 µg/mL; in the assay with KM20L2 it was 0.0000099 µg/mL; in the assay on SK-MEL-5, 0.0000082 µg/mL. The LC-50 in the assay on OVCAR-3 was greater than 0.0001 µg/mL; with SF-295 it was greater than 0.0001 µg/mL; in the assay with A498 it was greater than 0.0001 µg/mL; in the assay with NCI-H460 it was greater than 0.0001 µg/mL; in the assay with KM20L2, 0.00069 µg/mL; in the assay on SK-MEL-5 it was 0.00043 µg/mL. Moreover, the concentration for total growth inhibition (TGI) was 0.16 ng/mL with OVCAR-3; greater than 0.1 ng/mL in the assay with SF-295; greater than 0.1 ng/mL in the assay with A498; 0.061 ng/mL in the assay with NCI-H460; 0.015 ng/mL in the assay on KM20L2; 0.007 ng/mL in the assay on SK-MEL-5.
For “L-Dolavalyl-L-Valyl-N-Methyl-(S,S,R)-Dolaisoleucyl-(S,R,R)-Dolaproyl-L-Phenylalanineamide-N-[2-(4-methylthiazole)] [Compound 9b]”, the GI-50 in the assay on OVCAR-3 is 0.00000020 µg/mL; in the assay on SF-295, 0.0000026 µg/mL; in the assay with A498, 0.0000053 µg/mL; in the assay with NCI-H460 it was 0.00000046 µg/mL; in the assay on KM20L2, 0.0000034 µg/mL; in the assay with SK-MEL-5, 0.00000081 µg/mL. The total growth inhibition concentration (TGI) in the assay on OVCAR-3 was 0.012 ng/mL; in the assay on SF-295, greater than 0.1 ng/mL; in the assay on A498, greater than 0.1 ng/mL; with NCI-H460, 0.013 ng/mL; with KM20L2 it was 0.017 ng/mL; in the assay with SK-MEL-5, greater than 0.1 ng/mL. Besides, the LC-50 with SF-295, with A498, with NCI-H460, with KM20L2 and with SK-MEL-5 was greater than 0.0001 µg/mL each time.
“L-Dolavalyl-L-Valyl-N-Methyl-(S,S,R)-Dolaisoleucyl-(S,R,R)-Dolaproyl-L-Phenylalanineamide-N-[2-(4-phenylthiazole)] [Compound 9c]”: the GI-50 in the assay with OVCAR-3 was 0.000020 µg/mL; with SF-295, 0.000065 µg/mL; in the assay with A498 it was 0.000057 µg/mL; with NCI-H460 it was 0.000056 µg/mL; in the assay on KM20L2, 0.0002 µg/mL; in the assay on SK-MEL-5, 0.000043 µg/mL. Moreover, the LC-50 in the assay with OVCAR-3, with SF-295, in the assay with A498, with NCI-H460, in the assay with KM20L2 and in the assay on SK-MEL-5 was greater than 0.001 µg/mL throughout. In addition, the TGI is 0.13 ng/mL in the assay with OVCAR-3; greater than 1 ng/mL with SF-295; 0.72 ng/mL with A498; 0.51 ng/mL in the assay on NCI-H460; 0.75 ng/mL with KM20L2; 0.33 ng/mL with SK-MEL-5.
For “L-Dolavalyl-L-Valyl-N-Methyl-(S,S,R)-Dolaisoleucyl-(S,R,R)-Dolaproyl-L-Phenylalanineamide-N-[2-(6-methoxybenzo-thiazole)] [Compound 9f]”, the GI-50 amounted to 0.00032 µg/mL in the assay on OVCAR-3; 0.00055 µg/mL in the assay with SF-295; 0.00037 µg/mL in the assay on A498; 0.00033 µg/mL in the assay on NCI-H460; 0.00036 µg/mL in the assay on KM20L2; 0.000090 µg/mL with SK-MEL-5. The LC-50 with OVCAR-3, in the assay on SF-295, in the assay with A498, in the assay with NCI-H460, in the assay with KM20L2 and with SK-MEL-5 was greater than 0.01 µg/mL in each case. For the same substance, the concentration for total growth inhibition (TGI) in the assay with OVCAR-3 is 1.1 ng/mL; in the assay on SF-295, greater than 10 ng/mL; with A498, greater than 10 ng/mL; with NCI-H460, 1.6 ng/mL; in the assay with KM20L2, 2.2 ng/mL; with SK-MEL-5, greater than 10 ng/mL.
